Source: US20050142531A1, “Peptidically buffered formulations for electrotransport applications and methods of making” (priority 2003, published 2005)
Square brackets hold non-standard residues; d marks the D form. Peptide text beside a SMILES is read from it. Cit = NC(=O)NCCC[C@H](N)C(=O)O; Orn = NCCC[C@H](N)C(=O)O

Assay: pKa, pI and % salt of peptidic buffers
Assay type: physicochemical
Settings: for pI: Table 2; for % salt: fraction ionized with net charge in aqueous solution at pH equal to the pI

pka A (acidic pKa) (Table 2, first acidic pKa) | pka B (basic pKa) (Table 2, first basic pKa) | pka B (basic pKa) (Table 2, second basic pKa) | pka A (acidic pKa) (Table 2, second acidic pKa) | pka B (basic pKa) (Table 2, third basic pKa) | Compound | pka A (acidic pKa) (Table 2, third acidic pKa) | pI | % salt [%]
2.42 | 6.71 | 8.37 |  |  | C[C@H](N)C(=O)N[C@@H](Cc1c[nH]cn1)C(=O)O [Ala-His] (H-Ala-His-OH; N-terminus and C-terminus assumed) |  |  | 
2.64 | 8.05 | 12.50 | 4.10 |  | N=C(N)NCCC[C@H](N)C(=O)N[C@@H](CC(=O)O)C(=O)O [Arg-Asp] (H-Arg-Asp-OH; N-terminus and C-terminus assumed) |  |  | 
2.74 | 7.92 | 12.50 | 4.18 |  | N=C(N)NCCC[C@H](N)C(=O)N[C@@H](CCC(=O)O)C(=O)O [Arg-Glu] (H-Arg-Glu-OH; N-terminus and C-terminus assumed) |  |  | 
2.42 | 6.71 | 7.30 |  |  | NC(=O)C[C@H](N)C(=O)N[C@@H](Cc1c[nH]cn1)C(=O)O [Asn-His] (H-Asn-His-OH; N-terminus and C-terminus assumed) |  |  | 
2.45 | 6.81 | 7.98 | 3.02 |  | N[C@@H](CC(=O)O)C(=O)N[C@@H](Cc1c[nH]cn1)C(=O)O [Asp-His] (H-Asp-His-OH; N-terminus and C-terminus assumed) |  |  | 
2.42 | 6.71 | 7.90 |  |  | NC(=O)NCCC[C@H](N)C(=O)N[C@@H](Cc1c[nH]cn1)C(=O)O [Citrulline-His] (H-[Cit]-His-OH; N-terminus and C-terminus assumed) |  |  | 
2.42 | 6.71 | 7.70 |  |  | NC(=O)CC[C@H](N)C(=O)N[C@@H](Cc1c[nH]cn1)C(=O)O [GIn-His] (H-Gln-His-OH; N-terminus and C-terminus assumed) |  |  | 
2.66 | 7.94 | 12.50 | 4.01 |  | N=C(N)NCCC[C@H](NC(=O)[C@@H](N)CCC(=O)O)C(=O)O [Glu-Arg] (H-Glu-Arg-OH; N-terminus and C-terminus assumed) |  |  | 
2.45 | 6.81 | 8.20 | 3.45 |  | N[C@@H](CCC(=O)O)C(=O)N[C@@H](Cc1c[nH]cn1)C(=O)O [Glu-His] (H-Glu-His-OH; N-terminus and C-terminus assumed) |  |  | 
2.81 | 8.60 |  | 4.45 |  | NCC(=O)N[C@@H](CC(=O)O)C(=O)O [Gly-Asp] (H-Gly-Asp-OH; N-terminus and C-terminus assumed) |  |  | 
2.62 | 6.10 | 7.80 |  |  | NC(=O)C[C@H](NC(=O)[C@@H](N)Cc1c[nH]cn1)C(=O)O [His-Asn] (H-His-Asn-OH; N-terminus and C-terminus assumed) |  |  | 
3.05 | 6.10 | 7.80 |  |  | NC(=O)NCCC[C@H](NC(=O)[C@@H](N)Cc1c[nH]cn1)C(=O)O [His-Citrulline] (H-His-[Cit]-OH; N-terminus and C-terminus assumed) |  |  | 
2.93 | 6.10 | 7.80 |  |  | NC(=O)CC[C@H](NC(=O)[C@@H](N)Cc1c[nH]cn1)C(=O)O [His-Gln] (H-His-Gln-OH; N-terminus and C-terminus assumed) |  |  | 
3.05 | 6.10 | 7.80 |  | 9.70 | NCC(O)CC[C@H](NC(=O)[C@@H](N)Cc1c[nH]cn1)C(=O)O (stereo partly drawn) [His-Hydroxylysine] |  |  | 
2.42 | 6.10 | 7.80 |  |  | N[C@@H](Cc1c[nH]cn1)C(=O)N1CC(O)C[C@H]1C(=O)O (stereo partly drawn) [His-Hydroxyproline] |  |  | 
3.13 | 6.10 | 7.80 |  |  | CC[C@H](C)[C@H](NC(=O)[C@@H](N)Cc1c[nH]cn1)C(=O)O [His-Isoleucine] (H-His-Ile-OH; N-terminus and C-terminus assumed) |  |  | 
3.10 | 6.10 | 7.80 |  |  | CC(C)C[C@H](NC(=O)[C@@H](N)Cc1c[nH]cn1)C(=O)O [His-Leu] (H-His-Leu-OH; N-terminus and C-terminus assumed) |  |  | 

pka A (acidic pKa) (Table 2, first acidic pKa) | pka B (basic pKa) (Table 2, first basic pKa) | pka B (basic pKa) (Table 2, second basic pKa) | pka A (acidic pKa) (Table 2, second acidic pKa) | pka B (basic pKa) (Table 2, third basic pKa) | Compound | pka A (acidic pKa) (Table 2, third acidic pKa) | pI | % salt [%]
3.05 | 6.10 | 7.80 |  | 11.00 | NCCCC[C@H](NC(=O)[C@@H](N)Cc1c[nH]cn1)C(=O)O [His-Lys] (H-His-Lys-OH; N-terminus and C-terminus assumed) |  |  | 
2.89 | 6.10 | 7.80 |  |  | CSCC[C@H](NC(=O)[C@@H](N)Cc1c[nH]cn1)C(=O)O [His-Met] (H-His-Met-OH; N-terminus and C-terminus assumed) |  |  | 
2.82 | 6.10 | 7.80 |  | 11.00 | NCCC[C@H](NC(=O)[C@@H](N)Cc1c[nH]cn1)C(=O)O [His-Ornithine] (H-His-[Orn]-OH; N-terminus and C-terminus assumed) |  |  | 
2.88 | 6.10 | 7.80 |  |  | N[C@@H](Cc1c[nH]cn1)C(=O)N[C@@H](Cc1ccccc1)C(=O)O [His-Phe] (H-His-Phe-OH; N-terminus and C-terminus assumed) |  |  | 
2.65 | 6.10 | 7.80 |  |  | N[C@@H](Cc1c[nH]cn1)C(=O)N[C@@H](CO)C(=O)O [His-Ser] (H-His-Ser-OH; N-terminus and C-terminus assumed) |  |  | 
2.98 | 6.10 | 7.80 |  |  | C[C@@H](O)[C@H](NC(=O)[C@@H](N)Cc1c[nH]cn1)C(=O)O [His-Thr] (H-His-Thr-OH; N-terminus and C-terminus assumed) |  |  | 
3.07 | 6.10 | 7.80 |  |  | N[C@@H](Cc1c[nH]cn1)C(=O)N[C@@H](Cc1c[nH]c2ccccc12)C(=O)O [His-Trp] |  |  | 
2.13 | 6.10 | 7.80 | 9.97 |  | N[C@@H](Cc1c[nH]cn1)C(=O)N[C@@H](Cc1ccc(O)cc1)C(=O)O [His-Tyr] (H-His-Tyr-OH; N-terminus and C-terminus assumed) |  |  | 
3.18 | 6.10 | 7.80 |  |  | CC(C)[C@H](NC(=O)[C@@H](N)Cc1c[nH]cn1)C(=O)O [His-Val] (H-His-Val-OH; N-terminus and C-terminus assumed) |  |  | 
2.42 | 6.71 | 7.40 |  | 9.70 | NCC(O)CC[C@H](N)C(=O)N[C@@H](Cc1c[nH]cn1)C(=O)O (stereo partly drawn) [Hydroxylysine-His] |  |  | 
2.42 | 6.71 | 8.23 |  |  | O=C(O)[C@H](Cc1c[nH]cn1)NC(=O)[C@@H]1CC(O)CN1 (stereo partly drawn) [Hydroxyproline-His] |  |  | 
2.42 | 6.71 | 8.20 |  |  | CC[C@H](C)[C@H](N)C(=O)N[C@@H](Cc1c[nH]cn1)C(=O)O [Isoleucine-His] (H-Ile-His-OH; N-terminus and C-terminus assumed) |  |  | 
2.42 | 6.71 | 8.25 |  |  | CC(C)C[C@H](N)C(=O)N[C@@H](Cc1c[nH]cn1)C(=O)O [Leu-His] (H-Leu-His-OH; N-terminus and C-terminus assumed) |  |  | 
2.42 | 6.71 | 8.00 |  | 11.00 | NCCCC[C@H](N)C(=O)N[C@@H](Cc1c[nH]cn1)C(=O)O [Lys-His] |  |  | 
2.42 | 6.71 | 7.97 |  |  | CSCC[C@H](N)C(=O)N[C@@H](Cc1c[nH]cn1)C(=O)O [Met-His] (H-Met-His-OH; N-terminus and C-terminus assumed) |  |  | 
2.42 | 6.71 | 7.30 |  | 11.00 | NCCC[C@H](N)C(=O)N[C@@H](Cc1c[nH]cn1)C(=O)O [Ornithine-His] |  |  | 
2.42 | 6.71 | 7.70 |  |  | N[C@@H](Cc1ccccc1)C(=O)N[C@@H](Cc1c[nH]cn1)C(=O)O [Phe-His] (H-Phe-His-OH; N-terminus and C-terminus assumed) |  |  | 

Compound | pka A (acidic pKa) (Table 2, first acidic pKa) | pka B (basic pKa) (Table 2, first basic pKa) | pka B (basic pKa) (Table 2, second basic pKa) | pka A (acidic pKa) (Table 2, second acidic pKa) | pka B (basic pKa) (Table 2, third basic pKa) | pka A (acidic pKa) (Table 2, third acidic pKa) | pI | % salt [%]
Cn1cncc1C[C@H](NC(=O)CCN)C(=O)O [Anserine] | 2.64 | 7.04 | 9.49 |  |  |  |  | 
N[C@@H](CC(=O)O)C(=O)N[C@@H](CC(=O)O)C(=O)O [Asp-Asp] (H-Asp-Asp-OH; N-terminus and C-terminus assumed) | 2.70 | 8.26 |  | 3.40 |  | 4.70 |  | 
NCCC(=O)N[C@@H](Cc1cnc[nH]1)C(=O)O [Beta-Alanylhistidine] | 2.60 | 6.70 | 8.70 |  |  |  | 7.70 | 16
NCCC(=O)N[C@@H](Cc1cnc[nH]1)C(=O)O [Carnosine] | 2.64 | 6.83 | 9.51 |  |  |  | 8.17 | 8
N[C@@H](Cc1c[nH]cn1)C(=O)N[C@@H](Cc1c[nH]cn1)C(=O)O [His-His] | 2.25 | 5.40 | 6.80 |  | 7.95 |  |  | 
N[C@@H](Cc1c[nH]cn1)C(=O)N1CCC[C@H]1C(=O)O [His-Pro] | 2.62 | 6.10 | 7.80 |  |  |  |  | 
